According to article PMC6219549, “Emergence of a cholecystokinin/sulfakinin signalling system in Lophotrochozoa” (Scientific Reports, 2018):
“Also recorded” adds a separate entry of the source. Where two headings read alike, the source gives them in different places. Where a SMILES comes first, the peptide text is derived from it. Where no end group is shown, it is not given here. [ ]: non-standard residue; d: D form. sY = N[C@@H](Cc1ccc(OS(=O)(=O)O)cc1)C(=O)O; pGlu = O=C1CC[C@@H](C(=O)O)N1

Experiments:
Cragi-CCKR1 = target: T1, Cragi-CCKR1 (Magallana gigas, UniProt A0A345BJM8); assay: Calcium fluorescence (mobilization) assay, Cragi-CCKR1 in HEK293T cells; format: cell-based, Crassostrea gigas; conditions: for EC50: HEK293T transiently transfected with Cragi-CCKR1, Fluo-4 calcium response, 37 °C, read-out: EC50 for receptor activation, Cragi-CCKR1
T1 sequence (A0A345BJM8 1-408): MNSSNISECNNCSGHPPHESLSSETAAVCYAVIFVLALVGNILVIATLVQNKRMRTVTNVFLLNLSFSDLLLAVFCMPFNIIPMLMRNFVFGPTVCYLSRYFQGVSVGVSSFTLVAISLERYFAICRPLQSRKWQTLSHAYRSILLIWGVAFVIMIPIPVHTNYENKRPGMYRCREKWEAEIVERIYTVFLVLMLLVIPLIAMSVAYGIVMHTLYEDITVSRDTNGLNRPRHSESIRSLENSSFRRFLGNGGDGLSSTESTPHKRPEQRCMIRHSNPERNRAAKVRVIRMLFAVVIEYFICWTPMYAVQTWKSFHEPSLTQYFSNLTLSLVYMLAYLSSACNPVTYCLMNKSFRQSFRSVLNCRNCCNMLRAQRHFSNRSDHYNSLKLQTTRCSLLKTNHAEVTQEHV
From the text: (§1) The CDS of the Cragi-CCKR genes were amplified by PCR (Pfu DNA polymerase, Promega) using gene-specific sense primers harbouring a Kozak consensus sequence and antisense primers (Supplementary Table 3). Ten nanogram of plasmid DNA (Pal 17.3 vector, Evrogen) from a C. gigas “all developmental stages and adult central nervous system” directional and normalized cDNA library[62] was used as template. The resulting PCR products were directionally cloned into the pcDNA3.1 expression vector (Invitrogen). The correct insertion of the PCR products was confirmed by sequencing. Human Embryonic Kidney (HEK293T) cells were transiently transfected with the Cragi-CCKR/pcDNA3.1 constructs using Fugene HD (Promega) according to the manufacturer’s instructions. As a first step, co-transfection was done with a pcDNA3.1 expression construct for the human Gα16 subunit, a promiscuous G protein that can direct intracellular signalling of GPCRs to the release of calcium via the phospholipase Cβ pathway, regardless of the endogenous G protein coupling of the receptor[63]. To assess receptor activity independent of Gα16, calcium responses were measured in cells expressing only the Cragi-CCKRs. Cells for negative control experiments were transfected with empty pcDNA3.1 and Gα16/pcDNA3.1 constructs.
(§2) Activation of the Cragi-CCKRs by candidate peptide ligands was monitored using a fluorescence-based calcium mobilization assay. Briefly, transfected HEK293T cells were loaded with Fluo-4 Direct (Invitrogen) plus probenecid (qsp 2.5 mM final in the cell) (Molecular Probes) for 1 hour (45 min at 37 °C and 15 min at room temperature). Excitation of the fluorophore was done at 488 nm. The calcium response was measured for 2 min at 525 nm using a FLEXstation 3 (Molecular Devices) at 37 °C. Data were analysed using SoftMax Pro (Molecular Devices). Candidate ligands were first tested at a final concentration of 10^−5 M. Concentration-response measurements of activating ligands were conducted in quadruplicate and for at least three independent experiments. Half maximal effective concentrations (EC50 values) were calculated from concentration-response curves that were constructed using nonlinear regression analysis with a sigmoidal dose-response equation using Prism 5.0 (GraphPad software, USA).

Cragi-CCKR2 = target: T2, Cragi-CCKR2 (Magallana gigas, UniProt A0A345BJM9); assay: Calcium fluorescence (mobilization) assay, Cragi-CCKR2 in HEK293T cells; format: cell-based, Crassostrea gigas; conditions: for EC50: HEK293T transiently transfected with Cragi-CCKR2, Fluo-4 calcium response, 37 °C, read-out: EC50 for receptor activation, Cragi-CCKR2
T2 sequence (A0A345BJM9 1-406): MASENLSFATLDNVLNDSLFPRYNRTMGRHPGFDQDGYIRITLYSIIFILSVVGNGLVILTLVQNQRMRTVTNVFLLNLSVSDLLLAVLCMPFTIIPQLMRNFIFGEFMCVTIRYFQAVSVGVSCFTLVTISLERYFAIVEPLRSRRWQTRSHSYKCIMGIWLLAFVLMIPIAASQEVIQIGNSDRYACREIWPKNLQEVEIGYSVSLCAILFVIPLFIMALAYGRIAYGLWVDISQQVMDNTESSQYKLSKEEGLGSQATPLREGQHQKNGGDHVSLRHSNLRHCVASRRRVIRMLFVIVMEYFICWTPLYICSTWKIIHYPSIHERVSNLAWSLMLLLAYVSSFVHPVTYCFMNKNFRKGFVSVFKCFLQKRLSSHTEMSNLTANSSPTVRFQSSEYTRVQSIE
From the text: as §1, §2

oyster hindgut = assay: Myotropic bioassay on oyster hindgut; design: species or system Crassostrea gigas; conditions: for Duration, Relaxation (R) / Duration, Contraction (C) / Duration, Period (P) / Amplitude (A): mean ± SEM of four experiments, SEM; for Minimal threshold concentration inducing hindgut contraction: isolated oyster hindgut, perfused muscle chamber
Experimental: The myotropic bioassay was performed using oyster's hindgut according to the protocol described earlier for the cuttlefish oviduct. The muscle chamber was perfused at a flow rate of 0.67 mL.min^-1. Increasing concentrations of synthetic peptides (Cragi-CCK1, [[…], [[…], [[…]) were injected in the perfusing flow using a three-way valve to avoid mechanical stress. The flow of the samples into the muscle chamber was traced by adding phenol red.

[1] = concentration-response in quadruplicate, at least three independent experiments
[2] = high concentrations, HEK293T, Fig. 4
[3] = times more potent than non-sulphated Cragi-CCK1, calcium assay
[4] = folds more potent than [Y^8S] Cragi-CCK1, calcium assay

FDYGGGRW-NH2 [Cragi-CCK2] was tested, and the EC50 (Cragi-CCKR1; values given in M) was greater than 100000 nM and the EC50 (Cragi-CCKR2; values given in M) was greater than 100000 nM.

In the case of N=C(N)NCCC[C@H](NC(=O)CNC(=O)CNC(=O)CNC(=O)[C@H](Cc1ccc(OS(=O)(=O)O)cc1)NC(=O)[C@H](CC(=O)O)NC(=O)[C@@H](N)Cc1ccccc1)C(=O)N[C@@H](Cc1c[nH]c2ccccc12)C(N)=O [[Y^3S] Cragi-CCK2] (H-FD[sY]GGGRW-NH2), the EC50 (Cragi-CCKR2; values given in M) is reported as greater than 100000 nM.

For CC(C)C[C@H](NC(=O)CNC(=O)[C@H](Cc1ccc(O)cc1)NC(=O)[C@H](CC(=O)O)NC(=O)[C@H](Cc1ccc(OS(=O)(=O)O)cc1)NC(=O)[C@H](CC(=O)O)NC(=O)[C@H](Cc1c[nH]c2ccccc12)NC(=O)[C@H](C)NC(=O)CNC(=O)[C@@H]1CCC(=O)N1)C(=O)NCC(=O)NCC(=O)NCC(=O)N[C@@H](CCCNC(=N)N)C(=O)N[C@@H](Cc1ccccc1)C(N)=O [[Y^6S] Cragi-CCK1] ([pGlu]GAWD[sY]DYGLGGGRF-NH2), the “Duration, Relaxation (R)” value (oyster hindgut; Peptide 10^−5M, no peptide 11,35 ± 0,85) was 11,23 ± 0,60 min, the “Duration, Contraction (C)” value (oyster hindgut; Peptide 10^−5M, no peptide 20,18 ± 0,98) was 21 ± 1,42 min and the “Duration, Period (P)” value (oyster hindgut; Peptide 10^−5M, no peptide 31,53 ± 1,45) was 32,23 ± 1,53 min. For the same molecule, the “Amplitude (A)” value (oyster hindgut; Peptide 10^−5M, no peptide 0,129 ± 0,019) was 0,104 ± 0,021 g, the “Hindgut response (in words)” value (oyster hindgut; concentration up to 10^−5M) was “No response” and the EC50 (Cragi-CCKR1; [1]) was 16.4 ± 0.1 nM. For the same molecule, the “Activation of Cragi-CCKR2 (in words)” value (Cragi-CCKR2; doses as high as 10^−5M, calcium assay in HEK293T) was “inactive; also recorded: No activation”.

With CC(C)C[C@H](NC(=O)CNC(=O)[C@H](Cc1ccc(O)cc1)NC(=O)[C@H](CC(=O)O)NC(=O)[C@H](Cc1ccc(O)cc1)NC(=O)[C@H](CC(=O)O)NC(=O)[C@H](Cc1c[nH]c2ccccc12)NC(=O)[C@H](C)NC(=O)CNC(=O)[C@@H]1CCC(=O)N1)C(=O)NCC(=O)NCC(=O)NCC(=O)N[C@@H](CCCNC(=N)N)C(=O)N[C@@H](Cc1ccccc1)C(N)=O [Cragi-CCK1] ([pGlu]GAWDYDYGLGGGRF-NH2) the “Duration, Relaxation (R)” value (oyster hindgut; Peptide 10^−7M, no peptide 10,48 ± 0,78) was 16,03 ± 1,13 min, the “Duration, Contraction (C)” value (oyster hindgut; Peptide 10^−7M, no peptide 20,18 ± 0,33) was 35,23 ± 1,32 min and the “Duration, Period (P)” value (oyster hindgut; Peptide 10^−7M, no peptide 30,67 ± 0,67) was 51,27 ± 0,15 min. For the same molecule, the “Amplitude (A)” value (oyster hindgut; Peptide 10^−7M, no peptide 0,161 ± 0,038) was 0,203 ± 0,038 g, the “Minimal threshold concentration inducing hindgut contraction” value (oyster hindgut) was 10^−7 M and the EC50 (Cragi-CCKR1; [1]) was 195 ± 20 nM. It also gave an EC50 (Cragi-CCKR2; [1]) of 462 ± 67 nM.

With “GALRF-amide [oyster GALRF-amide unrelated neuropeptide used as negative control, reference compound]” the “Calcium response of Cragi-CCKR1 to negative control peptide” value (Cragi-CCKR1; [2]) was “No response” and the “Calcium response of Cragi-CCKR2 to negative control peptide” value (Cragi-CCKR2; [2]) was “No response”.

For CC(C)C[C@H](NC(=O)CNC(=O)[C@H](Cc1ccc(OS(=O)(=O)O)cc1)NC(=O)[C@H](CC(=O)O)NC(=O)[C@H](Cc1ccc(O)cc1)NC(=O)[C@H](CC(=O)O)NC(=O)[C@H](Cc1c[nH]c2ccccc12)NC(=O)[C@H](C)NC(=O)CNC(=O)[C@@H]1CCC(=O)N1)C(=O)NCC(=O)NCC(=O)NCC(=O)N[C@@H](CCCNC(=N)N)C(=O)N[C@@H](Cc1ccccc1)C(N)=O [[Y^8S] Cragi-CCK1] ([pGlu]GAWDYD[sY]GLGGGRF-NH2), the “Duration, Relaxation (R)” value (oyster hindgut; Peptide 10^−10M, no peptide 11,08 ± 2,27) was 17,62 ± 5,27 min, the “Duration, Contraction (C)” value (oyster hindgut; Peptide 10^−10M, no peptide 18,58 ± 1,03) was 37,13 ± 3,28 min and the “Duration, Period (P)” value (oyster hindgut; Peptide 10^−10M, no peptide 29,66 ± 2,22) was 54,75 ± 1,97 min. The “Amplitude (A)” value (oyster hindgut; Peptide 10^−10M, no peptide 0,121 ± 0,025) was 0,173 ± 0,023 g, the “Minimal threshold concentration inducing hindgut contraction” value (oyster hindgut) was 10^−10 M and the EC50 (Cragi-CCKR1; [1]) was 2.29 ± 1.55 nM. The “Potency relative to non-sulphated counterpart (Cragi-CCK1), Cragi-CCKR1” value (Cragi-CCKR1; [3]) was 90 times, the EC50 (Cragi-CCKR2; [1]) was 10 ± 1.9 nM and the “Potency relative to non-sulphated counterpart (Cragi-CCK1), Cragi-CCKR2” value (Cragi-CCKR2; [3]) was 50 times.

In the case of CC(C)C[C@H](NC(=O)CNC(=O)[C@H](Cc1ccc(OS(=O)(=O)O)cc1)NC(=O)[C@H](CC(=O)O)NC(=O)[C@H](Cc1ccc(OS(=O)(=O)O)cc1)NC(=O)[C@H](CC(=O)O)NC(=O)[C@H](Cc1c[nH]c2ccccc12)NC(=O)[C@H](C)NC(=O)CNC(=O)[C@@H]1CCC(=O)N1)C(=O)NCC(=O)NCC(=O)NCC(=O)N[C@@H](CCCNC(=N)N)C(=O)N[C@@H](Cc1ccccc1)C(N)=O [[Y^6S-Y^8S] Cragi-CCK1] ([pGlu]GAWD[sY]D[sY]GLGGGRF-NH2), the “Duration, Relaxation (R)” value (oyster hindgut; Peptide 10^−9M, no peptide 11,80 ± 1,63) is reported as 23,82 ± 1,35 min, the “Duration, Contraction (C)” value (oyster hindgut; Peptide 10^−9M, no peptide 18,76 ± 1,07) is reported as 38,57 ± 3,53 min and the “Duration, Period (P)” value (oyster hindgut; Peptide 10^−9M, no peptide 30,57 ± 2,22) is reported as 62,39 ± 2,50 min. For the same molecule, the “Amplitude (A)” value (oyster hindgut; Peptide 10^−9M, no peptide 0,103 ± 0,006) was 0,153 ± 0,016 g, the “Minimal threshold concentration inducing hindgut contraction” value (oyster hindgut) was 10^−9 M and the EC50 (Cragi-CCKR1; [1]) was 1.1 ± 0.25 nM. For the same molecule, the “Potency relative to mono-sulphated [Y^8S] Cragi-CCK1, Cragi-CCKR1” value (Cragi-CCKR1; [4]) was 2 folds, the EC50 (Cragi-CCKR2; [1]) was 1.98 ± 0.25 nM and the “Potency relative to mono-sulphated [Y^8S] Cragi-CCK1, Cragi-CCKR2” value (Cragi-CCKR2; [4]) was 5 folds.

In the case of FMRF-amide [reference compound], the “Hindgut effect (in words)” value (oyster hindgut; concentration of 10^−7M) is reported as “No effect”.
